The record followed here is US20230008317A1, “Z-STILBENE AMPK ACTIVATOR COMPOUNDS, COMPOSITIONS, METHODS AND USES THEREOF” (SOCIETE DES PRODUITS NESTLE S.A., priority 2019, published 2023).

Structures are written as SMILES.

The target of one test is T1, AMPKα2β1γ1 (Homo sapiens, UniProt P54619+P54646+Q9Y478).
T1 construct: His; made in house
Briefly: HTRF KinEASE activation assay with bacterially-expressed, phosphorylated purified AMPKα2β1γ1 complex. The test is classed as biochemical. The note with it: varying concentrations, 30 mins incubation, cell-free; FIG. 1. As for the experimental part:
Varying concentrations of compound 1 was incubated with phosphorylated purified AMPK α2β1γ1 for 30 mins. AMPK activity was determined using the HTRF KinEASE assay kit and results are presented as the ratio of 665/620 nm (STK1 phosphorylation).
The AMPKα2β1γ1 complex was expressed in bacteria and purified through the His-α subunit by nickel purification, purified through gel filtration and phosphorylated by incubation with CaMKKβ, and then further purified through a final gel filtration purification step. Phosphorylated purified AMPK was incubated with varying concentrations of ligand for 30 mins along with substrate and reagents from the HTRF-KinEASE Cisbio assay kit (STK S1 Kit). Phosphorylation of the substrate was measured by incubating with donor and acceptor antibodies for 2 h at room temperature as per the manufacturer's protocol (and Coulerie et al., (2016), see below) and phosphorylated peptide detected by performing HTRF.

For test [1], the system named is U-2 OS Flp-In T-REx cells (phosphorylation of acetyl-CoA carboxylase, ACC). Briefly: pACC HTRF assay: phosphorylation of the AMPK substrate ACC in U-2 OS Flp-In T-REx cells. The class given is cell-based. The conditions noted are these: varying concentrations, 30 mins at 37 C, media lacking FBS; FIG. 2. As for the experimental part:
U-2 OS cells were treated with varying concentrations of compound 1 for 30 mins at 37 C. Phosphorylation of ACC was assessed using the HTRF Cisbio (pACC kit).
U-2 OS Flp-In T-REx cells were seeded at 50 K in a 96-well plate and left overnight at 37 C in DMEM GlutaMAX (Thermo Fisher Scientific) supplemented with 10% (vol/vol) FBS and 100 U/ml penicillin G, and 100 μg/ml streptomycin. Cells were treated for 30 mins with varying concentrations of compound 1 in media lacking FBS and then cells were lysed in 50 μl of Cisbio lysis buffer #1 supplemented with blocking solution as per the manufacturer's protocol (Cisbio). Cells were lysed for 30 mins at room temperature before 16 μl of lysate was incubated with 4 μl of the HTRF antibodies (1:40 dilution of the acceptor and donor (p)ACC antibodies, as per the manufacturers protocol). Lysates were incubated overnight with the antibodies before 665 nm/620 nm ratio was determined using a MolecularDevices i3 plate reader (with a HTRF cartridge add-on). The results are plotted as fold activation compared to the respective AMPK complex without any compound.

T1 sequence (P54646 whole entry): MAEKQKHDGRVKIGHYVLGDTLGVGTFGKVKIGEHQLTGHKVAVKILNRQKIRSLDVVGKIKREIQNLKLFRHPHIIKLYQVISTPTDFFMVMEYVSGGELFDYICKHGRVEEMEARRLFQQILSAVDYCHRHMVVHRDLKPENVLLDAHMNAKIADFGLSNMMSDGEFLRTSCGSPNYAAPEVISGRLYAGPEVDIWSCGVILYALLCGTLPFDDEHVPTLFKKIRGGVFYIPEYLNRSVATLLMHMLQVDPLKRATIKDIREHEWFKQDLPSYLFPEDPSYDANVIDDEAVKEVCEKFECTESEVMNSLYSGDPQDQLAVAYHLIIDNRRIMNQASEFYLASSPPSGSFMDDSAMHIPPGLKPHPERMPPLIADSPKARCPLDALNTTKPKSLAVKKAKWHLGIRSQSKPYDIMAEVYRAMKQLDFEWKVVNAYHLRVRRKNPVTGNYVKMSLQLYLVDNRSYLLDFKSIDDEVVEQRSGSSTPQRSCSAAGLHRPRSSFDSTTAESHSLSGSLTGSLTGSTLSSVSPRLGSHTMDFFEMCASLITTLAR
T1 sequence (Q9Y478 whole entry): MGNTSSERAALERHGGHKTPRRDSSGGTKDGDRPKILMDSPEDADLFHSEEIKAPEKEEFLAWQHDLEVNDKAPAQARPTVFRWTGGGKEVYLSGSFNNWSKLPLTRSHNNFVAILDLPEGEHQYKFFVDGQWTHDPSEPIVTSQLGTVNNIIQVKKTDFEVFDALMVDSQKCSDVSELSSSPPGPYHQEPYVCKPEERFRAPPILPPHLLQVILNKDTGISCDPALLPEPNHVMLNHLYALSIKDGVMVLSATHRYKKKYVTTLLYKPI
T1 sequence (P54619 whole entry): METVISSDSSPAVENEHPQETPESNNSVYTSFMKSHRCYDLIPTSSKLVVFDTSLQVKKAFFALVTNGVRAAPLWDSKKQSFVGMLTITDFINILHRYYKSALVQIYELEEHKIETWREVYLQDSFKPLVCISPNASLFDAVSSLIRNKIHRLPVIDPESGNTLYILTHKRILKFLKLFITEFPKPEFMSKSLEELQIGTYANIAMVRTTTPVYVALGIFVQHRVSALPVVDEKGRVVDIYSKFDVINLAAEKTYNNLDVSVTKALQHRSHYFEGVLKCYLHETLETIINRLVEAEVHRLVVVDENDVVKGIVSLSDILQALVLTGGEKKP

For the molecule `COc1cc(O)cc(/C=C\c2cccc(O)c2)c1` [compound 1, (Z)-3,3′-Dihydroxy-5-methoxystilbene], the “AMPK activity (STK1 substrate phosphorylation, 665 nm/620 nm ratio)” value at AMPKα2β1γ1 is “allosterically activates AMPKα2β1γ1”. For the same molecule, in test [1], the “Phosphorylation of ACC (fold activation relative to untreated cells)” value was “increased the phosphorylation of the AMPK substrate, ACC, in a dose-dependent manner”.
